Experimental data as given in ChEMBL document CHEMBL1143203, “Targeting the inverted CCAAT Box-2 of the topoisomerase IIalpha gene: DNA sequence selective recognition by a polyamide-intercalator as a staggered dimer” (Bioorg Med Chem, 2008).
The source made the active and inactive calls. The calls are words filed in the database; no cut-off is given here.

Key:
[1] = Binding affinity to biotinylated AAGCTT DNA
[2] = Binding affinity to biotinylated AAATTT DNA
[3] = Binding affinity to biotinylated ACGCGT DNA
[4] = Inhibition of NF-Y binding to 5'-[32P]ICB2-containing DNA fragment at 50 uM after 2 hrs by electrophoretic mobility shift assay
Nucleic Acid [5] = test: Binding affinity to topoisomerase 2-alpha promoter AAGCTA DNA by thermal denaturation assay; format: nucleic-acid assay
Nucleic Acid [6] = test: Binding affinity to topoisomerase 2alpha promoter ATGCAT DNA by thermal denaturation assay; format: nucleic-acid assay
Nucleic Acid [7] = test: Binding affinity to topoisomerase 2alpha promoter AAATTT 11 bp DNA by thermal denaturation assay; format: nucleic-acid assay
Nucleic Acid [8] = test: Binding affinity to topoisomerase 2alpha promoter AAATTT 10 bp DNA by thermal denaturation assay; format: nucleic-acid assay
Nucleic Acid [9] = test: Binding affinity to topoisomerase 2-alpha promoter AAATTT 12 bp DNA by thermal denaturation assay; format: nucleic-acid assay
NIH3T3 = test: Induction of topoisomerase 2-alpha expression in mouse NIH3T3 cells at 10 uM after 24 hrs by Western blotting assay; format: functional, cell-based

K [1] | K [2] | K [3] | Activity [4] | ΔTm (Nucleic Acid [5]) [°C] | ΔTm (Nucleic Acid [6]) [°C] | ΔTm (Nucleic Acid [7]) [°C] | ΔTm (Nucleic Acid [8]) [°C] | ΔTm (Nucleic Acid [9]) [°C] | Compound | Activity (NIH3T3)
5.5 10^6/M | 4.7 10^5/M | 9.5 10^4/M | inactive | 5.1 | 11 | 3.5 | – | – | CN(C)CCCNC(=O)c1cc(NC(=O)c2cc(NC(=O)c3nc(NC=O)cn3C)cn2C)cn1C | –
– | – | – | – | > 22 | – | – | 10 | – | CN(CCCN)CCCNC(=O)c1cc(NC(=O)c2cc(NC(=O)c3nc(NC=O)cn3C)cn2C)cn1C | –
5.6 10^6/M | 1.5 10^5/M | 2.8 10^5/M | Active | 8.4 | – | – | – | 3.8 | CN(CCCNC(=O)CCCCCCCN1C(=O)c2cccc3cccc(c23)C1=O)CCCNC(=O)c1cc(NC(=O)c2cc(NC(=O)c3nc(NC=O)cn3C)cn2C)cn1C | Active
